One data set has as its target EGFR L858R/T790M (LR/TM) (Homo sapiens, UniProt P00533, L858R/T790M). The data set can be described thus: ELISA kinase activity detection, EGFR double mutant. The data set is classed as biochemical. The conditions noted are these: ELISA-based EGFR-TK assay, ATP 5 μM, mean ± SD. For orientation: An ELISA detects its analyte on a solid surface through an enzyme-linked reagent.

The target in another data set is EGFR(WT) (Homo sapiens, UniProt P00533). Description: ELISA kinase activity detection, EGFR(WT). To be noted: ELISA-based EGFR-TK assay, ATP 5 μM; mean ± SD of at least two determinations. Type of data set: biochemical. As to the method:
(§1) Tyrosine kinase: EGFR(WT) • EGFR^T790M/L858R(LR/TM) • EGFR^T790M/L858R/[…](LR/TM/CS)
(§2) ELISA Kinase Activity Detection
Enzyme-Linked Immunosorbent Assay (ELISA) was used to detect the ability of a kinase to phosphorylate a substrate and calculate the inhibitory effect of a compound on the kinase activity. […]
(§3) The main steps of ELISA are listed as follows: the substrate Poly(Glu, Tyr) 4:1 was diluted with potassium ion-free PBS to 2.5 μg/well, incubated at 37° C. for 12-16 h to coat the ELISA plate for use. An ATP solution (final concentration of 5 μM) diluted with a reaction buffer (50 mM HEPES pH 7.4, 20 mM MgCl2, 0.1 mM MnCl2, 0.2 mM Na3VO4, 1 mM DTT) was added to each well. A compound or solvent control was added, and then a kinase was added to start the reaction at 37° C. in a shaker for 1 h. The plate was washed for three times with T-PBS, and 100 μL of antibody PY99 (diluted in T-PBS containing 5 mg/mL BSA, 1: 500) was added, and incubated in a shaker at 37° C. for 0.5 h. After washing the plate with T-PBS, 100 μL of horseradish peroxidase-labeled goat anti-mouse IgG (diluted in T-PBS containing 5 mg/mL BSA, 1: 2000) was added, and incubated in a shaker at 37° C. for 0.5 h. After washing the plate again, a developing liquid containing 0.03% H2O2, 2 mg/mL OPD (0.1 mol/L, in citrate buffer solution pH 5.4) was added at 100 μL/well, and incubated for 1-10 min at 25° C. in darkness. 50 μL/well of 2 M H2SO4 was added to quench the reaction, and read with a wavelength-tunable microplate reader (SpectraMax Plus384, Molecular Devices) at a wavelength of 490 nm. The IC50 value was obtained from the inhibition curve.

The target in data set [1] is T1, EGFR L858R/T790M/C797S (LR/TM/CS) (Homo sapiens, UniProt P00533, C797S/L858R/T790M).
T1 construct: purchased BPS Bioscience
The data set can be described thus: ELISA kinase activity detection, EGFR triple mutant. The conditions noted are these: ELISA-based EGFR-TK assay, ATP 5 μM, mean ± SD. Type of data set: biochemical. As to the method:
as §1, §2
Enzyme-Linked Immunosorbent Assay (ELISA) was used to detect the ability of a kinase to phosphorylate a substrate and calculate the inhibitory effect of a compound on the kinase activity. The used kinase was EGFR L858R/T790M/C797S (purchased from BPS Bioscience).
as §3

We go through 23 molecules from patent US20210155604A1, “QUINAZOLINE COMPOUND SERVING AS EGFR TRIPLE MUTATION INHIBITOR AND APPLICATIONS THEREOF” (EAST CHINA UNIVERSITY OF SCIENCE AND TECHNOLOGY, priority 2018, published 2021).

Chain of EGFR L858R/T790M (LR/TM) (P00533 25-1210 T790M/L858R): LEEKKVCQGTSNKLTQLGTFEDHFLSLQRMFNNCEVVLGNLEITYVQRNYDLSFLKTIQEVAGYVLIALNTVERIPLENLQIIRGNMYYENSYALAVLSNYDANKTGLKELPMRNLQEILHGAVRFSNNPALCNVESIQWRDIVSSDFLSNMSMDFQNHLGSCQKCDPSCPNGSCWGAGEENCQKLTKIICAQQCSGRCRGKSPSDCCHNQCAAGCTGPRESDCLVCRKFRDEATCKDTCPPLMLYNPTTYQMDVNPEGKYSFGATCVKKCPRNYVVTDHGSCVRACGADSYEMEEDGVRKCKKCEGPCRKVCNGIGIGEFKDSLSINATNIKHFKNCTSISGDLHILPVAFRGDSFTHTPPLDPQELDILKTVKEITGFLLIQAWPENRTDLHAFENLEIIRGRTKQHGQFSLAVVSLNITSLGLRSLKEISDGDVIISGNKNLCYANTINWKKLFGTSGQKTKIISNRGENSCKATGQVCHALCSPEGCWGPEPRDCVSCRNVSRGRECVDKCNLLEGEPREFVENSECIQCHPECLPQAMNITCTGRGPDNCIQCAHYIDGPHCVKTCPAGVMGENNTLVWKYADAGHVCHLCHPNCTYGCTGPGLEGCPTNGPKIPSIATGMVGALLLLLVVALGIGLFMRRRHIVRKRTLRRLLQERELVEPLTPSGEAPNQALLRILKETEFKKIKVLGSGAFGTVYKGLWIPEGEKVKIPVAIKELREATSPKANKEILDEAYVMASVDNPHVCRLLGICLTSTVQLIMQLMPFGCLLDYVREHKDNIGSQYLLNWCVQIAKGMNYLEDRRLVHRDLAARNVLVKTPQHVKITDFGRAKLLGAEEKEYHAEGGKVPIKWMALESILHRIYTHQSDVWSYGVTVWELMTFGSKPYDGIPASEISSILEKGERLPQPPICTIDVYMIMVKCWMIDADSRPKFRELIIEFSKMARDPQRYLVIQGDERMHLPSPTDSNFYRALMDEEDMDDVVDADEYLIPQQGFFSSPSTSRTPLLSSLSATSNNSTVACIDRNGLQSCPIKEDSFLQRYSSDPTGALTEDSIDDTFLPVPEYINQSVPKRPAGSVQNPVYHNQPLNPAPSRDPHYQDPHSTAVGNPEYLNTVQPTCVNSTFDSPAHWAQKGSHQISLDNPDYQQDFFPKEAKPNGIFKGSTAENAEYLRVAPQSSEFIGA
T1 sequence (P00533 25-1210 T790M/C797S/L858R): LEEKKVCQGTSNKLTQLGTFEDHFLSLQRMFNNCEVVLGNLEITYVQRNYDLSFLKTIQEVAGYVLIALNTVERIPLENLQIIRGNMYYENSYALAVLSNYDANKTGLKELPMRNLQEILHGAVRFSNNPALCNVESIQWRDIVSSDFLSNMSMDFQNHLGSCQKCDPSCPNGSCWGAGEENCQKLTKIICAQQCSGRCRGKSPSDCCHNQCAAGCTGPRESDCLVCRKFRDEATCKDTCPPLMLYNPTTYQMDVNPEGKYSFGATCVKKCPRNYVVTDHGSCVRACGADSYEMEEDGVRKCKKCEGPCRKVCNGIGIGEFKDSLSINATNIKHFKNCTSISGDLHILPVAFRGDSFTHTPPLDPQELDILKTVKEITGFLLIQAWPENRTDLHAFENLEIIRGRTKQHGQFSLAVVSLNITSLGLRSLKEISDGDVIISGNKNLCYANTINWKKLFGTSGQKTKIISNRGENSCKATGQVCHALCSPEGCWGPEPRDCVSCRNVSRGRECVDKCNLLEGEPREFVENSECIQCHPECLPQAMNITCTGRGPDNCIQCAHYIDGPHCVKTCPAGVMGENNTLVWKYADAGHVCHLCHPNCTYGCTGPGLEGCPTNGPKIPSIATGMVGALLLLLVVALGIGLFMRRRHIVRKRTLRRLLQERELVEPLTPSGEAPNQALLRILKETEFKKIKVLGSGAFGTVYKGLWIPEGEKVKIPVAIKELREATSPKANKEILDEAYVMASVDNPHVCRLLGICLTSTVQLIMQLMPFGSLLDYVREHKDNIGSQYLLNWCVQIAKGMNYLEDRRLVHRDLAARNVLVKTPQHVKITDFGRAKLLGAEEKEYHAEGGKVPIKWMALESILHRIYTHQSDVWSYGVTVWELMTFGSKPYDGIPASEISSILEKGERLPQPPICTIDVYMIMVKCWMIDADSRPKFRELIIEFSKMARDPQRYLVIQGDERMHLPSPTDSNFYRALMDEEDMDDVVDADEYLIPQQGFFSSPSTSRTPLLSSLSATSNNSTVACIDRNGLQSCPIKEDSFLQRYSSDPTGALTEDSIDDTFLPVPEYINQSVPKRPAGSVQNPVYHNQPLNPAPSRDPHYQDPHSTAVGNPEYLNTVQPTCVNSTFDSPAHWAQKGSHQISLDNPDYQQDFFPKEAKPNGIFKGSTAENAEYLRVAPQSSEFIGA
Chain of EGFR(WT) (P00533 25-1210): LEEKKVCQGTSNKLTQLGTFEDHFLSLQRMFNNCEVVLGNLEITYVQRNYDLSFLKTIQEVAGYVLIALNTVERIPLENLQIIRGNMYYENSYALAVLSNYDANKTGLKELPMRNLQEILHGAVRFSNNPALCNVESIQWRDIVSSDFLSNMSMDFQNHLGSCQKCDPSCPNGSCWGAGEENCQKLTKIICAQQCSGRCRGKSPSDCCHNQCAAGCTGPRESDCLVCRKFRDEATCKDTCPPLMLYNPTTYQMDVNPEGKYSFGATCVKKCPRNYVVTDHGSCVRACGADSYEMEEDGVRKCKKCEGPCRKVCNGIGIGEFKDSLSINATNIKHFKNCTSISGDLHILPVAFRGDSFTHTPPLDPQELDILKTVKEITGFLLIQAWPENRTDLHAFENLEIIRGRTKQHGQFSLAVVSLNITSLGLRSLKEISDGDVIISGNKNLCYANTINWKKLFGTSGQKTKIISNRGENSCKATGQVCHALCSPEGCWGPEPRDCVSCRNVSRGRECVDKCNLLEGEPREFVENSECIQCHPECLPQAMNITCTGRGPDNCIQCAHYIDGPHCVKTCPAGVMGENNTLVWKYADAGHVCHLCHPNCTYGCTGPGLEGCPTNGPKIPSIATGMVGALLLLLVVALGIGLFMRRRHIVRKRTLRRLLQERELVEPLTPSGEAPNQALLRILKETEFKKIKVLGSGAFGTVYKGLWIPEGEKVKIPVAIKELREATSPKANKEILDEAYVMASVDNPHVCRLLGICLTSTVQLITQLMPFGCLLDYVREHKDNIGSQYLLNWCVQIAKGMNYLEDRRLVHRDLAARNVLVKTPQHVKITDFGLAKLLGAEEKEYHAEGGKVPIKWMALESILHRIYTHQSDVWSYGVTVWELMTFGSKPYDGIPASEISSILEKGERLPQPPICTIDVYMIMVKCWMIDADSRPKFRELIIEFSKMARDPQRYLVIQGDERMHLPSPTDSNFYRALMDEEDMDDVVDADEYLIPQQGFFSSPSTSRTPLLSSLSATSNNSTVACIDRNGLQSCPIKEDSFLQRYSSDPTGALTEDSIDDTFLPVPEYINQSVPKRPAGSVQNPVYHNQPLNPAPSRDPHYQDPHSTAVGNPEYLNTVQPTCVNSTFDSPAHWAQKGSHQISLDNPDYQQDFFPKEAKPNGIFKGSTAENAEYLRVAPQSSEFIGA

Usually IC50 stands for the concentration that inhibits the measured activity by half. Take `COc1cc2c(Nc3ccc(NC(=O)c4ccccc4)cc3F)ncnc2cc1OCC1CCN(C)CC1` [Example 1]: the half-maximal inhibitory concentration (IC50) against EGFR L858R/T790M (LR/TM) is 6630 ± 657 nM; on EGFR(WT), 59.9 ± 1.8 nM; in data set [1], over 10000 nM.
In the case of `COc1cc2c(Nc3cc(NC(=O)c4ccccc4)ccc3F)ncnc2cc1OCC1CCN(C)CC1` [Example 2, N-(4-Fluoro-3-((6-methoxy-7-((1-methylpiperidin-4-yl)methoxy)quinazolin-4-yl)amino)phenyl)benamide], the results for the IC50 (at EGFR L858R/T790M (LR/TM); at EGFR(WT); in data set [1]) were over 10000 nM, 53.7 ± 13.8 nM and over 10000 nM, respectively.
`COc1cc2c(Nc3ccc(NC(=O)Cc4ccccc4)cc3F)ncnc2cc1OCC1CCN(C)CC1` [Example 3, N-(3-Fluoro-4-((6-methoxy-7-((1-methylpiperidin-4-yl)methoxy)quinazolin-4-yl)amino)phenyl)-2-phenylacetamide]: the 50% inhibitory concentration (IC50) was 7560 ± 1200 nM on EGFR L858R/T790M (LR/TM), 3.7 ± 1.6 nM against EGFR(WT) and over 10000 nM in data set [1].
On the same counts, the results for `COc1cc2c(Nc3cc(NC(=O)Cc4ccccc4)ccc3F)ncnc2cc1OCC1CCN(C)CC1` [Example 4, N-(4-Fluoro-3-((6-methoxy-7-((1-methylpiperidin-4-yl)methoxy)quinazolin-4-yl)amino)phenyl)-2-phenylacetamide] are over 10000 nM, 1350 ± 312 nM and over 10000 nM.
On the same counts, the results for `COc1cc2c(Nc3ccc(NC(=O)CC4Cc5ccccc5C4)cc3F)ncnc2cc1OCC1CCN(C)CC1` [Example 5] are 1380 ± 235 nM, 68.3 ± 13 nM and over 10000 nM.
As for `COc1cc2c(Nc3cc(NC(=O)CC4Cc5ccccc5C4)ccc3F)ncnc2cc1OCC1CCN(C)CC1` [Example 6, 2-(2,3-Dihydro-1H-inden-2-yl)-N-(4-fluoro-3-((6-methoxy-7-((1-methylpiperidin-4-yl)methoxy)quinazolin-4-yl)amino)phenyl)acetamide], the IC50 on EGFR L858R/T790M (LR/TM) was 3030 ± 689 nM; at EGFR(WT), 1100 ± 180 nM; in data set [1], over 10000 nM.
`COc1cc2c(Nc3ccc(OCc4ccccc4)cc3)ncnc2cc1OCC1CCN(C)CC1` [Example 7, N-(4-(benzyloxy)phenyl)-6-methoxy-7-((1-methylpiperidin-4-yl)methoxy)quinazolin-4-amine]: the 50% inhibitory concentration (IC50) was 4630 ± 825 nM against EGFR L858R/T790M (LR/TM), 2.6 ± 1.3 nM on EGFR(WT) and 5570 ± 1000 nM in data set [1].
By melting point is commonly meant the temperature of the solid-liquid transition. `COc1cc2c(Nc3ccc(NC(=O)C(C)c4ccccc4)cc3F)ncnc2cc1OCC1CCN(C)CC1` (stereo not drawn) [Example 9, N-(3-Fluoro-4-((6-methoxy-7-((1-methylpiperidin-4-yl)methoxy)quinazolin-4-yl)amino)phenyl)-2-phenylpropionamide] registered a melting point of 199.6 to 199.8 °C. At EGFR L858R/T790M (LR/TM), this molecule came in with a 50% inhibitory concentration (IC50) of 2560 ± 800 nM. At EGFR(WT), this molecule returned an IC50 of 7.7 ± 1.8 nM. In addition, half-maximal inhibition in data set [1] (IC50) was put at 4810 ± 2920 nM.
In the case of `COc1cc2c(Nc3ccc(NC(=O)C(c4ccccc4)N4Cc5ccccc5C4=O)cc3F)ncnc2cc1OCC1CCN(C)CC1` (stereo not drawn) [Example 12], the figures for the 50% inhibitory concentration (IC50) (at EGFR L858R/T790M (LR/TM); on EGFR(WT); in data set [1]) were 3.2 ± 0.8 nM, 1.3 ± 0.3 nM and 14.5 ± 3.3 nM, respectively.
Regarding `COc1cc2ncnc(Nc3ccc(NC(=O)c4ccccc4)cc3F)c2cc1OC` [Example 15], the half-maximal inhibitory concentration (IC50) (against EGFR L858R/T790M (LR/TM); in data set [1]) was over 10000 nM throughout.
In the case of `COc1cc2ncnc(Nc3cc(NC(=O)c4ccccc4)ccc3F)c2cc1OC` [Example 16], the half-maximal inhibitory concentration (IC50) was over 10000 nM against EGFR L858R/T790M (LR/TM), 137 ± 80.2 nM against EGFR(WT) and over 10000 nM in data set [1].
`COc1cc2ncnc(Nc3ccc(NC(=O)C(c4ccccc4)N4Cc5ccccc5C4=O)cc3F)c2cc1OC` (stereo not drawn) [Example 17]: the 50% inhibitory concentration (IC50) on EGFR L858R/T790M (LR/TM) was determined as 8.5 ± 0.7 nM; against EGFR(WT), 16.1 ± 4.8 nM; in data set [1], 37.1 ± 18.8 nM.
Consider `COc1cc2c(Nc3cc(NC(=O)C(c4ccccc4)N4Cc5ccccc5C4=O)ccc3F)ncnc2cc1OCC1CCN(C)CC1` (stereo not drawn) [Example 18], for which the values for the IC50 (at EGFR L858R/T790M (LR/TM); against EGFR(WT); in data set [1]) were 3.2 ± 1.3 nM, 1.3 ± 0.6 nM and 14.5 ± 5.2 nM, respectively.
`COc1cc2c(Nc3ccc(NC(=O)[C@H](c4ccccc4)N4Cc5ccccc5C4=O)cc3F)ncnc2cc1OCC1CCN(C)CC1` [Example 19, (S)—N-(3-Fluoro-4-((6-methoxy-7-((1-methylpiperidin-4-yl)methoxy)quinazolin-4-yl)amino)phenyl)-2-(1-oxoisoindolin-2-yl)-2-phenylacetamide]: the IC50 on EGFR L858R/T790M (LR/TM) was determined as 8.6 ± 2.1 nM; at EGFR(WT) it was 4.6 ± 2.8 nM; in data set [1] it was 7.9 ± 2 nM.
Regarding `COc1cc2c(Nc3ccc(NC(=O)[C@@H](c4ccccc4)N4Cc5ccccc5C4=O)cc3F)ncnc2cc1OCC1CCN(C)CC1` [Example 20, (R)—N-(3-Fluoro-4-((6-methoxy-7-((1-methylpiperidin-4-yl)methoxy)quinazolin-4-yl)amino)phenyl)-2-(1-oxoisoindolin-2-yl)-2-phenylacetamide], the figures for the IC50 (on EGFR L858R/T790M (LR/TM); against EGFR(WT); in data set [1]) were 6.4 ± 1.6 nM, 3.5 ± 1 nM and 19.2 ± 3.2 nM, respectively.
The matching figures for `COc1cc2c(Nc3ccc(NC(=O)C(C4CCCCC4)N4Cc5ccccc5C4=O)cc3F)ncnc2cc1OCC1CCN(C)CC1` (stereo not drawn) [Example 21, 2-cyclohexyl-N-(3-fluoro-4-((6-methoxy-7-((1-methylpiperidin-4-yl)methoxy)quinazoline-4-yl)amino)phenyl)-2-(1-oxoisoindolin-2-yl)acetamide]: 180 ± 94.9 nM, 27.1 ± 12 nM and 361 ± 123 nM.
The matching figures for `COc1cc2c(Nc3ccc(NC(=O)C(c4cccc(F)c4)N4Cc5ccccc5C4=O)cc3F)ncnc2cc1OCC1CCN(C)CC1` (stereo not drawn) [Example 22, N-(3-Fluoro-4-((6-methoxy-7-((1-methylpiperidin-4-yl)methoxy)quinazolin-4-yl)amino)phenyl)-2-(3fluorophenyl)-2-(1-oxoisoindolin-2-yl)acetamide]: 6.7 ± 2.2 nM, 2 ± 0.5 nM and 13.4 ± 2.7 nM.
Consider `COc1cc2ncnc(Nc3ccc(NC(=O)C(c4ccccc4)N4Cc5ccccc5C4=O)cc3F)c2cc1OCC1CCN(C)CC1` (stereo not drawn) [Example 23], for which the IC50 against EGFR L858R/T790M (LR/TM) turned out to be 2.4 ± 0.5 nM; against EGFR(WT), 0.8 ± 0.3 nM; in data set [1] it was 18 ± 8.6 nM.
The matching figures for `COc1cc2ncnc(Nc3ccc(NC(=O)C(c4ccccc4)N4Cc5ccccc5C4=O)cc3F)c2cc1OCN1CCN(C)CC1` (stereo not drawn) [Example 24]: 4.8 ± 0.7 nM, 1 ± 0.2 nM and 19.1 ± 4.6 nM.
For `COc1cc2ncnc(Nc3ccc(NC(=O)C(c4ccccc4)N4Cc5ccccc5C4=O)cc3F)c2cc1OCCCN1CCOCC1` (stereo not drawn) [Example 25, (3-Fluoro-4-((7-methoxy-6-(3-morpholinopropoxy)quinazolin-4-yl)amino)phenyl)-2-(1-oxoisoindolin-2-yl)-2-phenylacetamide], the concentration for half-maximal inhibition (IC50) at EGFR L858R/T790M (LR/TM) is 7.3 ± 1.3 nM; on EGFR(WT), 1.6 ± 0.3 nM; in data set [1], 97.5 ± 12.9 nM.
On the same counts, the results for `COCCOc1cc2ncnc(Nc3ccc(NC(=O)C(c4ccccc4)N4Cc5ccccc5C4=O)cc3F)c2cc1OCCOC` (stereo not drawn) [Example 26, (4-((6,7-bis(2-methoxyethoxy)quinazolin-4-yl)amino)-3-fluorophenyl)-2-(1-oxoisoindolin-2-yl)-2-phenylacetamide] are 1.5 ± 0.2 nM, 0.7 ± 0.1 nM and 8.5 ± 2.6 nM.
The matching figures for `COc1cc2nc(N)nc(Nc3ccc(NC(=O)C(c4ccccc4)N4Cc5ccccc5C4=O)cc3F)c2cc1OC` (stereo not drawn) [Example 27, (4-((2-amino-6,7-dimethoxyquinazolin-4-yl)amino)-3-fluorophenyl)-2-(1-oxoisoindoline-2-yl)-2-phenylacetamide]: over 10000 nM, 388 ± 55.3 nM and over 10000 nM.
On the same counts, the results for `COc1cc2c(Nc3ccc(NC(=O)C(c4cc(F)ccc4F)N4Cc5ccccc5C4=O)cc3F)ncnc2cc1OCC1CCN(C)CC1` (stereo not drawn) [Example 28, 2-(2,5-Difluorophenyl)-N-(3-fluoro-4-((6-methoxy-7-((1-methylpiperidin-4-yl)methoxy)quinazolin-4-yl)amino)phenyl)-2-(1-oxoisoindolin-2-yl)acetamide] are 35.3 ± 12.1 nM, 2.5 ± 0.8 nM and 27.5 ± 17.7 nM.
